# According to patent publication US8637455B2, “Compositions and methods for delivery of glycopeptide antibiotics to medical device surfaces” (Affinergy, LLC, priority 2007, dated 2014):
# *1 amine or outer side, *2 acyl side, *3 side chain or, on linkers, in order; H or OH if unused. Bridges are numbered along the chain shown (N, C = ends). Where no end group is shown, it is not given here. [ ]: non-standard residue; d: D form. The star is where a group is joined. (miniPEG)2 = linker of two mini-PEG units, (HN—CH2—CH2—O—CH2—CH2—O—CH2—C═O)2, O=C(COCCOCCN[*:1])NCCOCCOCC(=O)[*:2]; Myristoyl = CCCCCCCCCCCCCC(=O)*; Aun = NCCCCCCCCCCC(=O)O; AEEA = NCCOCCOCC(=O)O; Ahx = NCCCCCC(=O)O
# Tests used:
# [1] = Binding of alkaline-phosphatase linked peptides to immobilized biotinylated vancomycin; conditions: absorbance at 405 nm
# Text: From the peptide amino acid sequence […] (SEQ ID NO: 1) additional peptides were designed and expressed in the bacterial expression system described herein to further evaluate structure-function relationships. A truncated peptide comprising the amino acid sequence of SEQ ID NO:9 (STCLIDMYGVCH) was expressed and compared to a peptide comprising SEQ ID NO:1 for binding affinity for glycopeptide antibiotic. Also produced were a dimer of this truncated peptide (SEQ ID NO:10; […]), a D to A substitution (SEQ ID NO:11; STCLIAMYGVCH), a D to E substitution (SEQ ID NO:12; STCLIEMYGVCH), and a G to S substitution (SEQ ID NO:13; STCLIDMYSVCH). Relative binding strengths of these peptides and of other representative peptides to glycopeptide antibiotic were determined by EC50 values for binding to vancomycin or other glycopeptide antibiotic.
# A typical binding assay for glycopeptide antibiotic was performed according to the following procedure. The concentrations of the alkaline-phosphatase linked variant peptides were normalized to equal levels based on the alkaline-phosphatase activity as determined in a kinetic assay with the alkaline-phosphatase specific chromogenic substrate p-nitrophenyl phosphate (p-NPP). A streptavidin coated microtiter plate was coated with biotinylated vancomycin. Serial dilutions of normalized alkaline-phosphatase linked peptides were allowed to bind to the immobilized vancomycin and detected by addition of the alkaline-phosphatase specific chromogenic substrate p-NPP. Relative affinity for peptide binding to the immobilized vancomycin was determined by measuring the absorbance at 405 nm of the colored product of the alkaline phosphatase reaction. […] EC50 values for the synthetic peptides binding to vancomycin were determined as described in Example 1 and are shown in Table 3. Preferred are peptides that bind to glycopeptide antibiotic with binding affinity of EC50 of less than or equal to about 1 μM, and more preferably, in the nanomolar range (e.g., <0.1 μM).
# [2] = Binding assay of peptide for gentamycin; conditions: gentamycin (an aminoglycoside antibiotic); similar assay format as for vancomycin
# Protocol: Using a similar binding assay format as described herein for vancomycin, the ability of a peptide comprising the amino acid sequence of SEQ ID NO: 1 to bind gentamycin (an aminoglycoside antibiotic) was determined.
# [3] = tested on: Staphylococcus aureus strain MZ100; experiment: In vitro infection assay on titanium beads, colony counts; assay type: cell-based; conditions: peptide 5 μM + vancomycin 100 μM
# Protocol: To illustrate the antibacterial activity of the peptide compositions, an in vitro infection assay was performed. Briefly, a surface material was contacted with one of the peptide compositions such that the peptide binds to the surface material. The peptide composition can have glycopeptide antibiotic already bound thereto at the time of contacting the peptide with the surface material, or the glycopeptide antibiotic can be contacted with the peptide in a step subsequent to binding the peptide composition to the surface material. The surface material was washed to remove unbound glycopeptide antibiotic, and then contacted with bacterial cells (added from a culture in log phase growth) and incubated to promote bacterial growth. The surface material was washed, and any bacterial cells colonizing the surface material removed and plated to assess bacterial growth.
# In one example, Staphylococcus aureus strain MZ100 was used as the representative bacterial cells. First, as a representative surface material, titanium beads were sterilized in acetone in a sonication bath, and then air dried in a sterile hood. The beads were individually placed in sterilized microfuge tubes (one bead per tube). […] The next day, the plates were examined for bacterial growth, and the number of bacterial colonies was quantified per plate.
# [4] = Vancomycin loading on titanium surface by peptide compositions (HPLC assay); assay type: binding; conditions: peptide at 10 μM; vancomycin 200 μM; titanium beads; 30 minutes, 4 washes
# Protocol: In one experiment, titanium beads were placed into wells of a 96 well plate. To each well was added a range of concentrations (1-50 μM) of peptide composition comprising at least one surface-binding peptide coupled to at least one glycopeptide antibiotic binding peptide and vancomycin at 200 μM. The appropriate negative controls were also included. The plate was incubated for 30 minutes, and then the wells and beads were washed 4 times with buffer. After washing, 10 mM HCl was added to each well to elute remaining vancomycin from the metal bead. Bound vancomycin was measured by HPLC assay at detection wavelength 214 nm. […] In addition, binding assays performed using stainless steel rather than titanium beads as a representative surface material yielded similar results.
# S. aureus = experiment: Bacterial growth with loaded titanium beads, optical density at 600 nm; assay type: cell-based; conditions: peptide 10 μM + vancomycin 200 μM, 37° C. for 18 hours
# Protocol: In another experiment, antimicrobial activity of the peptide compositions was measured as follows. Titanium beads were placed into wells of a 96 well plate. To each well was added a 10 μM of peptide composition comprising at least one surface-binding peptide coupled to at least one glycopeptide antibiotic binding peptide and vancomycin at 200 μM. The appropriate negative controls were also included. The plate was incubated for 1 hour at 20° C., and then the wells and beads were washed 4 times with buffer. After washing, the beads were transferred to the well of a plate containing S. aureus in log phase growth and incubated at 37° C. for 18 hours. Bacterial growth was assessed by reading optical density at 600 nm.
# S. aureus MZ100 = experiment: In vitro infection model on titanium pins, colony counts; assay type: cell-based; conditions: composition 5 μM + vancomycin 100 μM, two hours with S. aureus MZ100
# Protocol: Acetone-sterilized titanium pins (1 mm diameter, 12 mm long) were first washed in PBS. These pins were then incubated in a solution (PBS) containing the respective composition (5 μM)+vancomycin (100 μM) for 15 minutes at room temperature, with intermittent inversion for coating. Each pin was then washed extensively in PBS and placed in 30 μL of S. aureus MZ100 cultured at 10^6 colony forming units (cfu) per mL, according to methods above. The coated pins were then inoculated in 30 mm lengths of 1.5 mm diameter silicone tubing, with closed ends. After incubation for two hours with shaking, the pin was placed in a new tube containing 1 mL PBS. After inverting several times, PBS was aspirated, and replaced with a fresh 1 mL of PBS. The pins were then sonicated at 20 kHz for four cycles of 15 seconds each. Supernatants (100 μL) and dilutions were plated on trypticase soy agar (TSA) plates, incubated for 24 hours at 37° C., and colonies were counted. An assay control included the same steps of the infection model, except that the pin is uncoated pin (i.e., without composition according to the presently disclosed subject matter bound thereto) (“Control”). As representative examples, compositions comprising the amino acid sequences of SEQ ID NOs: 125 and 126 were tested for antimicrobial activity using the in vitro infection model (see, Table 7, “A” & “B”, respectively).
# [5] = tested on: binding between vancomycin and a peptide comprising the amino acid sequence of SEQ ID NO:1; experiment: Inhibition by Lys-D-Ala-D-Ala of specific binding between vancomycin and peptide SEQ ID NO:1
# Protocol: As an example, illustrated is the inhibition by Lys-D-Ala-D-Ala of specific binding between vancomycin and a peptide comprising the amino acid sequence of SEQ ID NO:1. To the wells of a 96 well plate coated with streptavidin was added 100 μl of a 0.2 μM solution of biotinylated peptide in buffer-T. After incubation, the wells were blocked by adding 200 μl of a 0.5 mM solution of biotin in buffer-T. The plates were then washed three times with buffer-T. Serial dilutions of Lys-D-Ala-D-Ala were prepared, and added individually to the wells such that Lys-D-Ala-D-Ala ranged in a final concentration of from about 1 μM to about 200 μM (in a volume of 35 μl). Also added to each well was 35 μl of biotinylated vancomycin (20 nM final concentration), and the plate was incubated at 30 minutes for room temperature. The wells were then washed three times with buffer-T, followed by the addition of 100 μl of streptavidin-alkaline phosphatase conjugate (1 mg/ml diluted 1:500 in buffer-T). Following a 30 minute incubation, the wells were washed five times with buffer-T. Added to each well was 100 μl of pNPP, followed by colorimetric detection after 12 minutes at an absorbance of 405 nm.
substance,measurement,setting,value
11 (STCLIAMYGVCH) [compound 11],glycopeptide antibiotic binding,[1],no detectable glycopeptide antibiotic binding
12 (STCLIEMYGVCH) [compound 12],glycopeptide antibiotic binding,[1],no detectable glycopeptide antibiotic binding
CLIDMYGVCHNFDGAYDS [compound 1],binding affinity for gentamycin,[2],lacked significant binding affinity
119 (NHTISKNHKKKNKNSNKTR) [compound 119],bacterial growth on the plates,[3],completely inhibited
NHTISKNHKKKNKNSNKTR [SEQ ID NO: 119],# of bacterial colonies,[3]; 2 hour incubation with MZ100,0
13 (STCLIDMYSVCH) [compound 13],glycopeptide antibiotic binding,[1],no detectable glycopeptide antibiotic binding
131 (SSCLIDIYGVCHNFDAY[AEEA][AEEA]SSHRTNHKKNNPKKKNKTRGSSGK; disulfide 3-11 (inferred)) [compound 131],Picomoles vancomycin/cm^2,[4],76 Picomoles vancomycin/cm^2
same,inhibition of bacterial growth,S. aureus,complete inhibition
AUD-AUD-AUD-SSCLIDIYGVCHNFDAY-(miniPEG)2-HKKNNPKKKNKTRGSSK ([Aun][Aun][Aun]SSCLIDIYGVCHNFDAY[(miniPEG)2]HKKNNPKKKNKTRGSSK; disulfide 6-14 (inferred)) [SEQ ID NO: 126],# of bacterial colonies (CFU),S. aureus MZ100,<10 CFU
STCLIDMYGVCHSSCLIDMYGVCH [compound 10],glycopeptide antibiotic binding,[1],displayed glycopeptide antibiotic binding
Lys-D-Ala-D-Ala,inhibition of binding between vancomycin and peptide,[5]; Lys-D-Ala-D-Ala between 100 μM to 200 μM,~100%
same,IC50,"[5]; biotinylated vancomycin 20 nM, immobilized peptide SEQ ID NO:1, read-out: concentration of Lys-D-Ala-D-Ala needed to inhibit about 50% of the binding between vancomycin and peptide",~10 µM
STCLIDMYGVCH [compound 9],glycopeptide antibiotic binding,[1],displayed glycopeptide antibiotic binding
Myr-Ahx-SSCLIDIYGVCHNFDAY-(miniPEG)2-HKKNNPKKKNKTRGSSK ({Myristoyl-Ahx}-SSCLIDIYGVCHNFDAY[(miniPEG)2]HKKNNPKKKNKTRGSSK; disulfide 3-11 (inferred)) [SEQ ID NO: 125],# of bacterial colonies (CFU),S. aureus MZ100,100 CFU
130 (SSCLIDIYGVCHNFDAY[AEEA][AEEA]HKKNNPKKKNKTRGSSK; disulfide 3-11 (inferred)) [compound 130],Picomoles vancomycin/cm^2,[4],83 Picomoles vancomycin/cm^2
same,inhibition of bacterial growth,S. aureus,complete inhibition
